Laboratory results: US10294202B2, “Pyrrolidinones as herbicides” (FMC Corporation, priority 2013, dated 2019)

How the values were obtained:
blackgrass = experiment: Test A postemergence herbicide test; assay type: in vivo, Alopecurus myosuroides
Outline: (§1)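 Visual injury rating, 0 (no effect) to 100 (complete control), versus untreated controls ~10 days after treatment. Postemergence spray applied at one- to two-leaf stage, plants 2–10 cm tall, potted in loam soil/sand. Greenhouse-held.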

corn = experiment: Test A pre-/postemergence herbicide test; assay type: in vivo, Zea mays; conditions: Postemergence
Outline: (§2)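 Seeds in loam–sand blend received preemergence directed soil spray; separately, plants 2–10 cm at one- to two-leaf stage received postemergence spray, both with test chemicals in non-phytotoxic solvent with surfactant. After ~10 days in greenhouse, injury rated visually against untreated controls, 0 (no effect) to 100 (complete control).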

kochia = experiment: Test A pre-/postemergence herbicide test; assay type: in vivo, Kochia scoparia
Outline: as §2

giant foxtail = experiment: Test A pre-/postemergence herbicide test; assay type: in vivo, Setaria faberii
Outline: as §2

ducksalad = experiment: Test B flooded paddy test; assay type: in vivo, Heteranthera limosa; conditions: 500 g ai/ha, Flood; scale of 0 to 100 where 0 is no effect and 100 is complete control
Outline: (§3)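 Scored visually 0–100 (0 no effect, 100 complete control) versus controls after 13 to 15 greenhouse days. Treatment: compound added to paddy water kept 3 cm above soil, on 2-leaf-stage plants.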

ragweed = experiment: Test A pre-/postemergence herbicide test; assay type: in vivo, Ambrosia elatior
Outline: as §2

rice = experiment: Test B flooded paddy test; assay type: in vivo, Oryza sativa; conditions: 500 g ai/ha, Flood; scale of 0 to 100 where 0 is no effect and 100 is complete control
Outline: as §3

barnyardgrass [1] = experiment: Test A pre-/postemergence herbicide test; assay type: in vivo, Echinochloa crus-galli
Outline: as §2

sedge, umbrella = experiment: Test B flooded paddy test; assay type: in vivo, Cyperus difformis; conditions: 500 g ai/ha, Flood; scale of 0 to 100 where 0 is no effect and 100 is complete control
Outline: as §3

wheat = experiment: Test A pre-/postemergence herbicide test; assay type: in vivo, Triticum aestivum; conditions: Postemergence
Outline: as §2

barnyardgrass [2] = experiment: Test B flooded paddy test; assay type: in vivo, Echinochloa crus-galli; conditions: 500 g ai/ha, Flood; scale of 0 to 100 where 0 is no effect and 100 is complete control
Outline: as §3

pigweed = experiment: Test A pre-/postemergence herbicide test; assay type: in vivo, Amaranthus retroflexus
Outline: as §2

ryegrass, Italian = experiment: Test A pre-/postemergence herbicide test; assay type: in vivo, Lolium multiflorum
Outline: as §2

galium = experiment: Test A postemergence herbicide test; assay type: in vivo, Galium aparine
Outline: as §1

[3] = 125 g ai/ha, visual rating on 0 to 100 scale (0 no effect, 100 complete control), approx. 10 days
[4] = 500 g ai/ha, 0 to 100 scale (0 no effect, 100 complete control)
[5] = Postemergence, 125 g ai/ha, visual rating on 0 to 100 scale (0 no effect, 100 complete control), approx. 10 days
[6] = Postemergence, 500 g ai/ha, 0 to 100 scale (0 no effect, 100 complete control)
[7] = Preemergence, 125 g ai/ha, 0 to 100 scale where 0 is no effect and 100 is complete control
[8] = preemergence, 500 g ai/ha, 0 to 100 scale, 0 is no effect and 100 is complete control
[9] = 125 g ai/ha, 0 to 100 scale, 0 no effect, 100 complete control
[10] = 125 g ai/ha, visual rating, 0 to 100 scale, 0 no effect, 100 complete control, approximately 10 days, preemergence
[11] = Postemergence, 125 g ai/ha, 0 to 100 scale, 0 no effect, 100 complete control
[12] = preemergence, 500 g ai/ha, 0 to 100 scale

In the case of `O=C1NCC(c2cc3ccccc3s2)C1C(=O)Nc1ccccc1C(F)(F)F` (stereo not drawn) [Compound 297], the “Plant response rating, Blackgrass” value (blackgrass; [3]) is reported as 0, the “Plant response rating, Blackgrass” value (blackgrass; [4]) is reported as 10 and the “Plant response rating, Corn” value (corn; [3]) is reported as 0. For the same molecule, the “Plant response rating, Corn” value (corn; [4]) was 0, the “Plant response rating, Kochia” value (kochia; [5]) was 0 and the “Plant response rating, Kochia” value (kochia; [6]) was 0. The “Plant response rating, Kochia” value (kochia; [7]) was 0, the “Plant response rating, Kochia” value (kochia; [8]) was 0 and the “Plant response rating, Foxtail, Giant” value (giant foxtail; [5]) was 0. The “Plant response rating, Foxtail, Giant” value (giant foxtail; [6]) was 0, the “Plant response rating, Foxtail, Giant” value (giant foxtail; [7]) was 30 and the “Plant response rating, Foxtail, Giant” value (giant foxtail; [8]) was 70. The “Plant response rating, Ducksalad” value (ducksalad) was 0, the “Plant response rating, Ragweed” value (ragweed; [5]) was 0 and the “Plant response rating, Ragweed” value (ragweed; [6]) was 0. For the same molecule, the “Plant response rating, Ragweed” value (ragweed; [7]) was 0, the “Plant response rating, Ragweed” value (ragweed; [8]) was 0 and the “Plant response rating, Rice” value (rice) was 0. For the same molecule, the “Plant response rating, Barnyardgrass” value (barnyardgrass [1]; [5]) was 0, the “Plant response rating, Barnyardgrass” value (barnyardgrass [1]; [6]) was 0 and the “Plant response rating, Barnyardgrass” value (barnyardgrass [1]; [7]) was 0. For the same molecule, the “Plant response rating, Barnyardgrass” value (barnyardgrass [1]; [8]) was 50, the “Plant response rating, Sedge, Umbrella” value (sedge, umbrella) was 0 and the “Plant response rating, Wheat” value (wheat; [3]) was 0. For the same molecule, the “Plant response rating, Wheat” value (wheat; [4]) was 0, the “Plant response rating, Barnyardgrass” value (barnyardgrass [2]) was 0 and the “Plant response rating, Pigweed” value (pigweed; [5]) was 0. The “Plant response rating, Pigweed” value (pigweed; [6]) was 0, the “Plant response rating, Pigweed” value (pigweed; [7]) was 0 and the “Plant response rating, Pigweed” value (pigweed; [8]) was 0. For the same molecule, the “Plant response rating, Ryegrass, Italian” value (ryegrass, Italian; [5]) was 0, the “Plant response rating, Ryegrass, Italian” value (ryegrass, Italian; [6]) was 0 and the “Plant response rating, Ryegrass, Italian” value (ryegrass, Italian; [7]) was 0. For the same molecule, the “Ryegrass, Italian plant response rating” value (ryegrass, Italian; Preemergence, 500 g ai/ha, visual rating on 0 to 100 scale (0 no effect, 100 complete control)) was 0, the “Plant response rating, Galium” value (galium; [3]) was 0 and the “Plant response rating, Galium” value (galium; [4]) was 0.

In the case of `Cc1ccc(C2CNC(=O)C2C(=O)Nc2cccc(F)c2F)cc1` (racemic) [Compound 151], the “Plant response rating, Blackgrass” value (blackgrass; [9]) is reported as 40, the “Blackgrass plant response rating (0 to 100 scale, 0 is no effect, 100 is complete control)” value (blackgrass; 500 g ai/ha) is reported as 70 and the “Plant response rating, Corn” value (corn; [9]) is reported as 0. The “Corn plant response rating (0 to 100 scale, 0 is no effect, 100 is complete control)” value (corn; 500 g ai/ha) was 50, the “Plant response rating, Kochia” value (kochia; [10]) was 90 and the “Plant response rating, Kochia” value (kochia; [11]) was 70. The “Kochia plant response rating (0 to 100 scale, 0 is no effect, 100 is complete control)” value (kochia; Postemergence, 500 g ai/ha) was 80, the “Plant response rating, Kochia” value (kochia; [12]) was 90 and the “Plant response rating, Foxtail, Giant” value (giant foxtail; [10]) was 80. For the same molecule, the “Plant response rating, Foxtail, Giant” value (giant foxtail; [11]) was 60, the “Foxtail, Giant plant response rating (0 to 100 scale, 0 is no effect, 100 is complete control)” value (giant foxtail; Postemergence, 500 g ai/ha) was 70 and the “Plant response rating, Foxtail, Giant” value (giant foxtail; [12]) was 90. For the same molecule, the “Plant response rating, Ducksalad” value (ducksalad) was 100, the “Plant response rating, Ragweed” value (ragweed; [10]) was 90 and the “Plant response rating, Ragweed” value (ragweed; [11]) was 60. For the same molecule, the “Ragweed plant response rating (0 to 100 scale, 0 is no effect, 100 is complete control)” value (ragweed; Postemergence, 500 g ai/ha) was 70, the “Plant response rating, Ragweed” value (ragweed; [12]) was 90 and the “Plant response rating, Rice” value (rice) was 0. For the same molecule, the “Plant response rating, Barnyardgrass” value (barnyardgrass [1]; [10]) was 90, the “Plant response rating, Barnyardgrass” value (barnyardgrass [1]; [11]) was 80 and the “Barnyardgrass plant response rating (0 to 100 scale, 0 is no effect, 100 is complete control)” value (barnyardgrass [1]; Postemergence, 500 g ai/ha) was 90. The “Plant response rating, Barnyardgrass” value (barnyardgrass [1]; preemergence, 500 g ai/ha, 0 to 100 scale (0 no effect, 100 complete control)) was 90, the “Plant response rating, Sedge, Umbrella” value (sedge, umbrella) was 0 and the “Plant response rating, Wheat” value (wheat; [9]) was 0. For the same molecule, the “Wheat plant response rating (0 to 100 scale, 0 is no effect, 100 is complete control)” value (wheat; 500 g ai/ha) was 60, the “Plant response rating, Barnyardgrass” value (barnyardgrass [2]) was 90 and the “Plant response rating, Pigweed” value (pigweed; [10]) was 0. For the same molecule, the “Plant response rating, Pigweed” value (pigweed; [11]) was 50, the “Pigweed plant response rating (0 to 100 scale, 0 is no effect, 100 is complete control)” value (pigweed; Postemergence, 500 g ai/ha) was 60 and the “Plant response rating, Pigweed” value (pigweed; [12]) was 0. The “Plant response rating, Ryegrass, Italian” value (ryegrass, Italian; [10]) was 10, the “Plant response rating, Ryegrass, Italian” value (ryegrass, Italian; [11]) was 30 and the “Ryegrass, Italian plant response rating (0 to 100 scale, 0 is no effect, 100 is complete control)” value (ryegrass, Italian; Postemergence, 500 g ai/ha) was 50. For the same molecule, the “Plant response rating, Ryegrass, Italian” value (ryegrass, Italian; [12]) was 60, the “Plant response rating, Galium” value (galium; [9]) was 60 and the “Galium plant response rating (0 to 100 scale, 0 is no effect, 100 is complete control)” value (galium; 500 g ai/ha) was 70.
